# According to PMC9939733 (The Journal of Biological Chemistry, 2023):
# Numbering of substitutions follows the chain as printed. Where “and” joins values, the source holds several entries; their conditions need not be identical. Equal values may be shown once.
# Tests used:
# Type in all cases: biochemical
# R140Q IDH2 = molecular target: T1, R140Q IDH2 (Homo sapiens, UniProt P48735, R140Q); assay: Absorbance assay, variant activity in the presence of equimolar 2OG (inhibition screen); settings: 6.0 mM 2OG and 6.0 mM test compound, 0.03 μM R140Q IDH2, 50 μM NADPH
# T1 construct: made in house; host or cells: Sf21 insect cells (cell pellets prepared at Evotec)
# T1 sequence (P48735 40-452 R140Q): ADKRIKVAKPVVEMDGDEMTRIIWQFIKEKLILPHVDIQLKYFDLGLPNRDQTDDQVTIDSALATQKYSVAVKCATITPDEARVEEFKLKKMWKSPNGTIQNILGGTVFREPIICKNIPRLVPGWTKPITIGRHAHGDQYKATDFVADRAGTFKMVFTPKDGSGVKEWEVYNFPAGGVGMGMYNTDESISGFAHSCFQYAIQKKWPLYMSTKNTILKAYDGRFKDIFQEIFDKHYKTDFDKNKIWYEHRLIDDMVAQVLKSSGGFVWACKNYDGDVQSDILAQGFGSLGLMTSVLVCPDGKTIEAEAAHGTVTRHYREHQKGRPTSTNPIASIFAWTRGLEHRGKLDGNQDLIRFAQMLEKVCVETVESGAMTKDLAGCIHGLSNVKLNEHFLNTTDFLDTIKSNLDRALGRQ
# Method in brief: (§1)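 Compound was added to all wells at once with a multichannel pipettor. Reagent was then dispensed to start the reaction. Every condition was done in four technical replicates.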
# R172K IDH2 = molecular target: T2, R172K IDH2 (Homo sapiens, UniProt P48735, R172K); assay: as above; settings: 1.0 mM 2OG and 1.0 mM test compound, 0.03 μM R172K IDH2, 50 μM NADPH
# T2 construct: made in house; host or cells: Sf21 insect cells (cell pellets prepared at Evotec)
# T2 sequence (P48735 40-452 R172K): T1 sequence (P48735 40-452 R140Q) with Q101R, R133K
# Method in brief: as §1
# R132C/S280F IDH1 = molecular target: T3, R132C/S280F IDH1 (Homo sapiens, UniProt O75874, R132C/S280F); assay: Steady-state kinetics, NADPH turnover assay
# T3 construct: made in house
# Protocol: independent runs, each composed of technical duplicates (n = 2; mean ± SD); c) R132C/S280F IDH1 assays
# monitoring NADPH turnover were performed as reported (3). […]
# WT IDH1 = molecular target: T4, WT IDH1 (Homo sapiens, UniProt O75874); assay: Absorbance assay, WT activity in the presence of equimolar DL-isocitrate (inhibition); settings: […] isocitrate and […] test compound, 75 μM NADP+, 2.0 nM WT IDH1
# T4 construct: made in house; host or cells: Escherichia coli BL21(DE3) pLyS
# Method in brief: as §1
# WT IDH2 = molecular target: T5, WT IDH2 (Homo sapiens, UniProt P48735); assay: as above; settings: […] isocitrate and […] test compound, 75 μM NADP+, 2.0 nM WT IDH2
# T5 construct: made in house; host or cells: Sf21 insect cells (cell pellets prepared at Evotec)
# T5 sequence (P48735 40-452): T1 sequence (P48735 40-452 R140Q) with Q101R
# Method in brief: as §1
# R132H IDH1 [1] = molecular target: T6, R132H IDH1 (Homo sapiens, UniProt O75874, R132H); assay: Steady-state kinetics, absorbance assay; design: made in house; host or cells: Escherichia coli BL21(DE3) pLyS
# Protocol: Compounds were dispensed using a CyBio SDW-CW CyBi-Well Simultaneous Pipettor and assay started using a ThermoFisher Multidrop Combi reagent dispenser.
# Reactions were performed as technical duplicates, and all assays were carried out in two independent duplicates.
# Target sequence in this assay (O75874 whole entry R132H): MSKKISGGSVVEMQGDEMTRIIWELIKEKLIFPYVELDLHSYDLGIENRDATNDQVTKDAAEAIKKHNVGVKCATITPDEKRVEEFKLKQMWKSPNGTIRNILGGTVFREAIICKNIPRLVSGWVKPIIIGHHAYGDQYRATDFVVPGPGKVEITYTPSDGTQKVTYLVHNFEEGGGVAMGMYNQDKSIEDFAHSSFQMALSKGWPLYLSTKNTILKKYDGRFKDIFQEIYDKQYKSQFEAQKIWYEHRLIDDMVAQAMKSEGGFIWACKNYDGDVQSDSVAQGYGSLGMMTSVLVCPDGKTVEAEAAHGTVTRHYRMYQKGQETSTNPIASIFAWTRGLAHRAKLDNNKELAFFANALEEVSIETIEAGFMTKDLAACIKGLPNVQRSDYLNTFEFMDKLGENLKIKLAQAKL
# R132H IDH1 [2] = molecular target: T6, R132H IDH1; assay: Electrochemical assay (FNR+R132H IDH1)@ITO/PGE electrode; design: made in house; host or cells: Escherichia coli BL21(DE3) pLyS (IDH1 R132H)
# Protocol: Assays were carried out in an anaerobic glovebox (Glove Box Technology) under a nitrogen atmosphere. A potentiostat (Autolab PGSTAT 10) running on Nova software was used for all experiments. As previously described, the electrochemical apparatus included an Autolab electrode rotator, a two-chamber custom-made glass electrochemical cell, and custom-made rotating pyrolytic graphite edge (PGE) electrodes ([55]). Platinum wire was used as the counter electrode; it was placed in the working electrode chamber. Electrode potentials (E) were measured against a saturated calomel electrode and converted to the standard hydrogen electrode using a temperature-dependent equation (at 25 °C: ESHE = ESCE + 0.2412 V) ([55]). Nanoporous indium tin oxide (ITO) electrodes were made by electrophoretically depositing ITO nanoparticles (<50 nm, Sigma-Aldrich) onto PGE electrodes (ITO/PGE) as previously described ([55]). […] In all experiments, 0.85 nmol (homodimer basis) of IDH1 R132H was used; the amount of coloaded FNR was adjusted to achieve the desired enzyme loading ratio. Electrodes loaded with enzyme were thoroughly rinsed using buffer solution before each experiment to remove excess enzyme. […]
# and controlled electrochemically under steady-state conditions (1).
# Conditions: 25 °C, mixed buffer (20 […]
# mM each MES, TAPS, CHES, pH 8.0), 10 mM MgCl2, 10 µM NADPH, 4 mL cell volume, (FNR+R132H IDH1)@ITO/PGE electrode, electrode area 0.06 cm2, rotated at 1000 rpm, E = –0.513 V vs SHE, enzyme loading ratios (molar): FNR/R132H IDH1; 2.5 (dimer basis).
# (1 picture or pasted object on this page, not shown here)
# Target sequence in this assay (O75874 2-414 R132H): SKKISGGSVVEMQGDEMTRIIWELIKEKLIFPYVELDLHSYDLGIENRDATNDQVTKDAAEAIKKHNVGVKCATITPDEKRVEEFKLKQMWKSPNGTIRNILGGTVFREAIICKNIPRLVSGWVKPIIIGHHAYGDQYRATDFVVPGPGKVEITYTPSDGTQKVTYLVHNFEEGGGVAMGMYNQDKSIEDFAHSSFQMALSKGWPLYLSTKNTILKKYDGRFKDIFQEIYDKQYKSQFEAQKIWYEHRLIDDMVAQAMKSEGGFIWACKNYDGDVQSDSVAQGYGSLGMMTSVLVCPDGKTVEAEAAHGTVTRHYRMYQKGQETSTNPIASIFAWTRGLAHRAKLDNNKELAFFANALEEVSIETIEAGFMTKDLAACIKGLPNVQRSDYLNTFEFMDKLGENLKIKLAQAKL
# [3] = 0.03 μM enzyme, 50 μM NADPH, 20 mM MgCl2, pH 8.0
# T4 sequence (O75874 whole entry): as the sequence (O75874 whole entry R132H) above, with H132R counted along it
# T3 sequence (O75874 whole entry R132C/S280F): as the sequence (O75874 whole entry R132H) above, with H132C, S280F counted along it
compound,measurement,setting,value
"O=C(O)CCC(=O)C(=O)O [2OG, 2-oxoglutarate, reference compound]",activity [%] (%-substrate conversion after 20 min incubation),R140Q IDH2,100%
same,activity [%] (%-substrate conversion after 20 min incubation),R172K IDH2,100%
same,Kmapp,R132C/S280F IDH1,0.04 ± 0.01 mM
same,activity [%] (%-substrate conversion after 20 min incubation),WT IDH1,93 ± 1%
same,activity [%] (%-substrate conversion after 20 min incubation),WT IDH2,91 ± 1%
same,Kmapp,R132H IDH1 [1]; [3],~ 0.85 mM and 0.85 ± 0.19 mM and 0.85 mM
same,kcatapp,R132H IDH1 [1]; [3],0.72 ± 0.04 s⁻¹ and 0.5 to 0.7 s⁻¹
same,Vmax,"R132H IDH1 [1]; experimental value used for Michaelis-Menten simulation, Fig. 3H",1.3 µM/min
same,predicted change in catalytic rate,R132H IDH1 [2],−9%
same,Kmapp (electrochemical assay),"R132H IDH1 [2]; 25 °C, pH 8.0, 10 mM MgCl2, 10 µM NADPH, nanoconfined enzyme",~0.6 mM
same,decrease of R132H IDH1 faradaic 'coupled' current during each scan,"R132H IDH1 [2]; cyclic voltammetry, stationary electrode, 20 μM NADPH, 10 mM MgCl2, pH 8",−10%
